Measurements from patent US20200362380A1, “Novel Biomolecule and Methods of Manufacturing Thereof” (priority 2018, published 2020).

Test system: plants
Assay: auxin effect on plants (media based agriculture)
Type: in vivo
Settings: media based agriculture with and without soil; statement in words only
Excerpt: The resulting monomer can be leached through the media column and recuperated in pure form after filtering out any bacteria using appropriate filtration such as diatomaceous earth or filter paper. This can also be carried out in media based agriculture both with and without soil.

Substance: 3-4 deoxy-glucosamine [monomer]
- auxin effect on plants: pronounced auxin effect
